# Test results from patent publication US9963708B2, “Recombinant vector for foreign gene expression without biological circuit interference of host cell and uses thereof” (INDUSTRY FOUNDATION OF CHONNAM NATIONAL UNIVERSITY, priority 2014, dated 2018).
# Test system: cGMP receptor protein
# Assay: Inducible GFP expression with cGMP added directly as inducing agent, without guanylyl cyclase
# Type: cell-based, Rhodospirillum centenum
# Conditions: cGMP 500 μM in 0.1% DMSO, 6 hours; pTrc99a-P-CRP + pPRO (0896-GFPuv)3
# Text: According to an inducible expression system, the target gene product is generally expressed in a large amount when there are internal/external inducing agents (chemicals, heat, oxygen, osmotic pressure, or the like) as a signal, and it is widely used in various fields. The most commonly used inducible system is a system in which IPTG is used as an inducing agent. However, being a chemically synthesized inducing agent, it is toxic to cells and, by producing an excess amount of proteins within a short time, a metabolic burden is stressful to the host, and thus it may work as a growth-inhibiting factor. […] To do so, guanylyl cyclase which converts GTP to cGMP molecule was removed, and cGMP was added as an inducing agent to a medium and the level of gene expression was determined. […]
# pTrc99a-Cyc-P-CRP plasmid was treated with restriction enzymes BamHI and HindIII to remove the polynucleotide encoding the guanylyl cyclase and according to treatment with a Klenow fragment, self-ligation was induced to complete pTrc99a-P-CRP construct. […] After inoculation to have 1% concentration of the original culture (15 ml), when the absorbance (OD600) of the culture reaches 0.5, cGMP dissolved in 0.1% DMSO was added to 500 μM and expression of the green fluorescent protein was induced for 6 hours. […]
compound,measurement,value
"Nc1nc2c(ncn2[C@@H]2O[C@@H]3COP(=O)(O)O[C@H]3[C@H]2O)c(=O)[nH]1 [cGMP, cyclic guanosine monophosphate]",expression of the green fluorescent protein induced by cGMP,there was indeed expression of the green fluorescent protein
